Values of other authors in patent publication US6955766B2, “Method for reducing harmful organisms in currents of water” (priority 1999, dated 2005).

Tested on: zebra mussels
Settings: batchwise treatment of water

CC(=O)OO [peroxyacetic acid]
concentration necessary to achieve an acceptable mortality rate of the mussels in a sufficiently short time: ≥ 10 mg/L
